Laboratory results published in US20230159436A1, “APPLICATIONS OF AMIDE ANALOGS OF TRITERPENES IN CURES OF CANCER AND OTHER DISEASES” (Pacific Arrow Limited, priority 2021, published 2023).
“And” between values parts separate entries of the source, which are not always exact repeats. Equal values may be shown once. Read-outs that look alike come from different tables or passages of the source. Values belong to the compound of their own block, whether it stands above or below them.

What was measured:
H460 cells = test: MTT assay, lung (H460); format: cell-based, human
Method: (§1) Cells. HTB-9 (bladder), HeLa-S3 (cervix), DU145 (prostate), H460 (lung), MCF-7 (breast), K562 (leukemia), HCT116 (colon), HepG2 (liver), U2OS (bone), T98G (brain), SK-MEL-5 (Skin) and OVCAR 3, ES2 (ovary), Pancreas (Capan), Mouth (KB), Kidney (A498).
(§2) MTT Assay. The procedure for MTT assay followed the method described by Carmichael et al. (1987) with modifications. The cells were seeded into a 96-well plate at for 24 hours before drug-treatment. The cells were then exposed to the drugs for 48, 72, or 96 hours. After the drug-treatment, MTT (0.5 mg/mL) was added to cultures and incubated for an hour. The formazan (product of the reduction of tetrazolium by viable cells) formed and was dissolved with DMSO and the O.D. at 490 nm, and was measured by an ELISA reader. The MTT level of the cells before drug-treatment was also measured (T0). The % cell-growth (% G) is calculated as: % G=(TD−T0/TC−T0)×100(1), where TC or TD represents O.D. readings of control or drug-treated cells.
(§3) When T0>TD, then the cytotoxicity (LC) expressed as % of the control is calculated as: % LC=(TD−T0/T0)×100(2).
A. Cells • H460 cells are derived from a Human Lung large cell carcinoma. Cells were grew in RPMI 1640 medium supplemented with 10% FCS, antibiotics and glutamine. 5000 cells were seeded in a well (96-welled plate) for one day before drug-treatment
B. Drug Treatment: • Drug: Tig-S (stored as a 1000× stock solution in DMSO) was used. • Drug concentration used: from 0.15-20 ug/ml. • Drug-treatment was carried out for 1, 2 and 4 days. For the 4 days incubation, cells were fed with fresh medium (with drug) on day 2.
C. At the end of the drug-treatment, cytotoxic test was performed with MTT assay.

red blood cells (RBC) = test: Haemolytic assay; format: cell-based, human
Method: Erythrocytes (RBC) were isolated from human blood (EDTA whole blood, collected randomly). 50 ul of the 10% RBC suspension (in PBS) was added to 2 ml of sample solutions (concentration range from 0.1 ug/ml to 400 ug/ml) in PBS. The mixture was vortexed briefly and sat for 60 min at room temperature. The mixture was spun at 3K for 10 min and the relative amounts of lysed hemoglobin in the supernatant were measured at 540 nm. The synthetic compounds of present application were tested with this method.

HCT116 = test: MTT assay, colon (HCT116); format: cell-based
Method: as §1, §2, §3

OVCAR3 = test: MTT assay, ovary (OVCAR3); format: cell-based
Method: as §1, §2, §3

ES2 cells = test: MTT assay, ovary (ES2); format: cell-based, human
Method: as §1, §2, §3
(§4) Experiment 30: A Comparison of Non-Cancerous with Cancer Cells: • Method: A. Cells • WI38 is a Normal Lung fibroblast. Cells were grew in MEM medium supplemented with 10% FCS, antibiotics and glutamine. 20K cells were seeded per well (96-welled plate) for one day before drug-treatment • ES2 is a Ovary Clear cells carcinoma. Cells were grew in RPMI-1640 medium supplemented with 10% FCS, antibiotics and glutamine. 10K cells were seeded per well (96-welled plate) for one day before drug-treatment.
(§5) B. Drug Treatment: • Drug: Tig-S. stored as 1000× stock solution in DMSO. • Drug concentration used: from 0.15-20 ug/ml. • Drug-treatment was carried out for 2 days (ES2) or 6 days (WI38). For the 6 days incubation, cells were fed with fresh medium (with drug) on day 3 and 5.
(§6) C. At the End of the Drug-Treatment, Cytotoxic Test was Performed with MTT Assay.

WI38 cells = test: MTT assay, normal lung fibroblast (WI38); format: cell-based, human
Method: as §2, §3, §4, §5, §6

[1] = test system: cancer growth, cancer invasion, cells invasion or cancer cell invasion; test: Inhibition of cancer growth and invasion (anti-cancer activity); format: cell-based
Source text: The program is based on the purification methods and biological assays including the MTT assay as described in International Application No. PCT/US05/31900, filed Sep. 7, 2005, U.S. Ser. No. 11/289,142, filed Nov. 28, 2005, and U.S. Ser. No. 11/131,551, filed May 17, 2005, and PCT/US2008/002086, 1188-ALA-PCT, filed Feb. 15, 2008, Ser. No. 12/344,682, 1020-B1-US, filed Dec. 29, 2008, US009499577B2, filed Jun. 24, 2014. The details of Analysis of gene expression of ES2 cells after Y-treatment by Microarray, Data Analysis Methods and Western blot in PCT/US2008/002086, 1188-ALA-PCT, filed Feb. 15, 2008, and the cell invasion experiments methods in International Application PCT/US2010/0042240, filed Jul. 16, 2010.

Capan cells = test: MTT assay, pancreas (Capan); format: cell-based, human
Method: as §1, §2, §3
A. Cells: Capan cells are derived from Human pancreas carcinoma (pancreas). Cells were grew in RPMI 1640 medium supplemented with 10% FCS, antibiotics and glutamine. […]
C. […] The percentage of drug-treated cells' growth as compared to those of the no drug control is determined.

K562 cells = test: Inhibition of cell cycling (flow cytometry); format: cell-based, human; settings: K562, three days, 0-20 ug/ml
Method: Experiment 31: Inhibition of Cell Cycling • 1. Method: Cells: Human leukemia cells K562 cultured in RPMI1640 medium. • 2. Drug: compound from present application or Tig-S (1000× stock solution in DMSO). • 3. Start cells concentration: 500000/ml. • 4. Cells were cultured with drug (0-20 ug/ml) for total of three days. • 5. Cells were harvested by centrifugation (136×g, 6 minutes); fixed with 70% ethanol and kept in −20 C before staining. • 6. Staining: Fixed cells were stained with Propidium iodide/RNase A/0.1% Triton X-100 in PBS. • 7. Flow Cytometry Analysis was performed in Baylor Core Facility with a LSRII instrument. • 8. Analysis: Single cell was gated and cell count—FL2-Area histogram were plotted. • 9. Cell distribution in different cell-cycle phases (G0/G1, S, G2/M) was analyzed.

IC50 of lung (H460) (H460 cells): 4.8 µg/mL | IC50 of colon (HCT116) (HCT116): 5.2 µg/mL | IC50 of ovary (OVCAR3) (OVCAR3): 5.8 µg/mL
SMILES: CC=C(C)C(=O)OCC1(C)C(O)CCC2(C)C1CCC1(C)C2CC=C2C3CC(C)(C)C(O)C(O)C3(COC(=O)C(C)=CC)C(O)CC21C (stereo not drawn) [Tig-R, 24,28-O-Tigloyl-3β,16α,21β,22α,24β,28-hexahydroxyolean-12-ene]
hemolytic activity (red blood cells (RBC)): no hemolytic activity | hemolytic activity (red blood cells (RBC); up to 20 ug/ml): do not have hemolytic activity | IC50 of ovary (ES2) (ES2 cells): 2.8 ug/ml and about 2.8 ug/ml | IC50 in normal human fibroblast cells (WI38) (WI38 cells): 10 to 15 µg/mL | anti-cancer activity [1]: have anti cancer activities | IC50 of pancreas (Capan) (Capan cells): 2.4 µg/mL

SMILES: CC=C(C)C(=O)OCC1(C)C(O)CCC2(C)C1CCC1(C)C2CC=C2C3CC(C)(C)C(OC(=O)C(C)=CC)C(O)C3(CO)C(O)CC21C (stereo not shown) [Tig-S]
effect on cell cycle (K562 cells): arrested in the S-phase | IC50, inhibition of lung H460 cells growth (H460 cells; 4 days): 3 µg/mL | IC50, inhibition of H460 cells' growth (H460 cells; Experiment 32, drug-treatment 1, 2 and 4 days): 3 µg/mL | drug concentration beyond which minimum cells growth inhibition was observed (H460 cells; H460): > 5 µg/mL | dead cells (H460 cells; H460, drug concentration 20 ug/ml): No dead cell was found | IC50, inhibition of lung H460 cells growth (H460 cells; one day): 3.4 µg/mL | IC50, inhibition of ovarian cancer (OCAR3) cells' growth (OVCAR3): 2.5 µg/mL | IC50 of ovary (OVCAR3) (OVCAR3): 6.5 | IC50, inhibition of ES2 cells (ES2 cells; 2 days): 0.3 µg/mL | IC100 (100% inhibition of growth, no cell lost) (ES2 cells; ES2): 0.16 to 0.3 µg/mL and 0.15 to 0.3 µg/mL | % of the control cell growth (ES2 cells; ES2, at 10 ug/ml): 10% | MTT OD, % of the original value (ES2 cells; ES2, at 10 ug/ml): 12% | IC50, inhibition of WI38 cells (WI38 cells; 6 days): 1.5 µg/mL | % of the control cell growth (WI38 cells; WI38, at 10 ug/ml): about 55% | MTT OD, % of the original value (WI38 cells; WI38, at 20 ug/ml): about 90% | cell lost or dead (WI38 cells; WI38, at 20 ug/ml): about 10% | cells died (WI38 cells; WI38, with 10 ug/ml): 10% | anti-cancer activity [1]: have anti cancer activities | IC50, inhibition of pancreas cancer (Capan) cells' growth (Capan cells; drug-treatment 3 days): about 1 ug/ml
